# Measurements as given in patent US11535838B2, “Serine protease molecules and therapies” (Research Development Foundation, priority 2012, dated 2022).
# Assays:
# [1] = tested on: Me180; assay: In vitro cytotoxic effects of GrB-based fusions, crystal violet; type: cell-based, human; conditions: Table 11, Me180, 72 h exposure
# [2] = tested on: NCI-N87; assay: as above; type: cell-based; conditions: Table 11, NCI-N87, 72 h exposure
# [3] = tested on: Jurkat; assay: Cytotoxic effects of GrB versus GrB-TWEAK; type: cell-based
# Text: (§1) Further GrB expression constructs were developed and tested. (GrB) encoded GrB, plasmid designation pSECTag-GrB. […] These constructs were expressed and tested.
# [4] = tested on: MDA-MB435/MDR1; assay: Cytotoxic effects of GrB versus GrB-TWEAK; type: cell-based
# Text: as §1
# [5] = tested on: SKBR3; assay: Cytotoxic effects of GrB versus GrB-TWEAK; type: cell-based
# Text: as §1
# [6] = tested on: SK-Mel-5; assay: Cytotoxic effects of GrB versus GrB-TWEAK; type: cell-based
# Text: as §1
# [7] = tested on: HEY; assay: Cytotoxic effects of GrB versus GrB-TWEAK; type: cell-based
# Text: as §1
# [8] = tested on: A172; assay: Cytotoxic effects of GrB versus GrB-TWEAK; type: cell-based
# Text: as §1
# [9] = tested on: MCF-7; assay: Cytotoxic effects of GrB versus GrB-TWEAK; type: cell-based
# Text: as §1
# [10] = tested on: T-24; assay: Cytotoxic effects of GrB versus GrB-TWEAK; type: cell-based
# Text: as §1
# [11] = tested on: MDA-MB231; assay: Cytotoxic effects of GrB versus GrB-TWEAK; type: cell-based
# Text: as §1
# [12] = tested on: OC-316; assay: Cytotoxic effects of GrB versus GrB-TWEAK; type: cell-based
# Text: as §1
# [13] = tested on: U87MG; assay: Cytotoxic effects of GrB versus GrB-TWEAK; type: cell-based
# Text: as §1
# [14] = tested on: HT-1080; assay: Cytotoxic effects of GrB versus GrB-TWEAK; type: cell-based
# Text: as §1
# [15] = tested on: HT-29; assay: Cytotoxic effects of GrB versus GrB-TWEAK; type: cell-based
# Text: as §1
# [16] = tested on: AAB-527; assay: Cytotoxic effects of GrB versus GrB-TWEAK; type: cell-based
# Text: as §1
# [17] = tested on: WM35; assay: Cytotoxic effects of GrB versus GrB-TWEAK; type: cell-based
# Text: as §1
# [18] = tested on: SK-Mel-1; assay: Cytotoxic effects of GrB versus GrB-TWEAK; type: cell-based
# Text: as §1
# [19] = tested on: ES-2; assay: Cytotoxic effects of GrB versus GrB-TWEAK; type: cell-based
# Text: as §1
# [20] = tested on: HeyA8-MDR; assay: Cytotoxic effects of GrB versus GrB-TWEAK; type: cell-based
# Text: as §1
# [21] = tested on: A375-M; assay: Cytotoxic effects of GrB versus GrB-TWEAK; type: cell-based
# Text: as §1
# [22] = tested on: MDA-MB435; assay: Cytotoxic effects of GrB versus GrB-TWEAK; type: cell-based
# Text: as §1
# [23] = tested on: BxPC-3; assay: Cytotoxic effects of GrB versus GrB-TWEAK; type: cell-based
# Text: as §1
# [24] = tested on: A2780; assay: Cytotoxic effects of GrB versus GrB-TWEAK; type: cell-based
# Text: as §1
# [25] = tested on: SB2; assay: Cytotoxic effects of GrB versus GrB-TWEAK; type: cell-based
# Text: as §1
# [26] = tested on: HeyA8; assay: Cytotoxic effects of GrB versus GrB-TWEAK; type: cell-based
# Text: as §1
# [27] = tested on: SK-Mel-28; assay: Cytotoxic effects of GrB versus GrB-TWEAK; type: cell-based
# Text: as §1
# [28] = tested on: eB-1; assay: In vitro cytotoxic effects of GrB-based fusions, crystal violet; type: cell-based, human; conditions: Table 11, eB-1, 72 h exposure
# [29] = tested on: Calu3; assay: as above; type: cell-based; conditions: Table 11, Calu3, 72 h exposure
# [30] = tested on: MDA MB453; assay: as above; type: cell-based, human; conditions: Table 11, MDA MB453, 72 h exposure
# [31] = tested on: H1437; assay: Cytotoxicity of GrB-Fc-IT4 constructs; type: cell-based
# Text: (§2) As an initial test of this arrangement a construct was produced comprising GrB-Fc-IT4 (scFv). Specifically, the IT4 scFv targets the product of the tumor necrosis factor receptor superfamily, member 12A (TNFRSF12A) gene and was previously described in Zhou et al., 2011, which is incorporated herein by reference. The sequence of the fusion protein produced by the construct is provided as SEQ ID NO: 45. The constructs was expressed and purified as detailed supra and tested for activity against a panel of cells lines (using GrB alone a control).
# [32] = tested on: H2073; assay: Cytotoxicity of GrB-Fc-IT4 constructs; type: cell-based
# Text: as §2
# [33] = tested on: SK-MEF-28; assay: Cytotoxicity of GrB-Fc-IT4 constructs; type: cell-based
# Text: as §2
# [34] = tested on: H1975; assay: Cytotoxicity of GrB-Fc-IT4 constructs; type: cell-based
# Text: as §2
# [35] = tested on: H520; assay: Cytotoxicity of GrB-Fc-IT4 constructs; type: cell-based
# Text: as §2
# [36] = tested on: MEF 3.5 −/−; assay: Cytotoxicity of GrB-Fc-IT4 constructs; type: cell-based
# Text: as §2
# [37] = tested on: WM35P2N1; assay: Cytotoxicity of GrB-Fc-IT4 constructs; type: cell-based
# Text: as §2
# [38] = tested on: MCF-7; assay: Cytotoxicity of GrB-Fc-IT4 constructs; type: cell-based
# Text: as §2
# [39] = tested on: HCC827; assay: Cytotoxicity of GrB-Fc-IT4 constructs; type: cell-based
# Text: as §2
# [40] = tested on: AsPc-1; assay: Cytotoxicity of GrB-Fc-IT4 constructs; type: cell-based
# Text: as §2
# [41] = tested on: A375; assay: Cytotoxicity of GrB-Fc-IT4 constructs; type: cell-based
# Text: as §2
# [42] = tested on: HCC2279; assay: Cytotoxicity of GrB-Fc-IT4 constructs; type: cell-based
# Text: as §2
# [43] = tested on: Capan-1; assay: Cytotoxicity of GrB-Fc-IT4 constructs; type: cell-based
# Text: as §2
# [44] = tested on: HT-29; assay: Cytotoxicity of GrB-Fc-IT4 constructs; type: cell-based
# Text: as §2
# [45] = tested on: WM35; assay: Cytotoxicity of GrB-Fc-IT4 constructs; type: cell-based
# Text: as §2
# [46] = tested on: H358; assay: Cytotoxicity of GrB-Fc-IT4 constructs; type: cell-based
# Text: as §2
# [47] = tested on: A549; assay: Cytotoxicity of GrB-Fc-IT4 constructs; type: cell-based
# Text: as §2
# [48] = tested on: H3255; assay: Cytotoxicity of GrB-Fc-IT4 constructs; type: cell-based
# Text: as §2
# [49] = tested on: Capan-2; assay: Cytotoxicity of GrB-Fc-IT4 constructs; type: cell-based
# Text: as §2
# [50] = tested on: MDA-MB-435; assay: Cytotoxicity of GrB-Fc-IT4 constructs; type: cell-based
# Text: as §2
# [51] = tested on: SB2; assay: Cytotoxicity of GrB-Fc-IT4 constructs; type: cell-based
# Text: as §2
# [52] = tested on: L3.6p1; assay: Cytotoxicity of GrB-Fc-IT4 constructs; type: cell-based
# Text: as §2
# [53] = tested on: MDA-MB-231; assay: Cytotoxicity of GrB-Fc-IT4 constructs; type: cell-based
# Text: as §2
# [54] = tested on: MDA-MD-231-Luc; assay: Cytotoxicity of GrB-Fc-IT4 constructs; type: cell-based
# Text: as §2
# [55] = tested on: SKOV3; assay: Cytotoxic effects of GrB/4D5 fusion constructs with and without a translocation domain; type: cell-based; conditions: SKOV3, Her2 Exp. High
# Text: (§3) Further GrB expression constructs were developed and tested.
# (§4) These constructs were expressed and tested.
# [56] = tested on: SKBR3; assay: as above; type: cell-based; conditions: SKBR3, Her2 Exp. High
# Text: as §3, §4
# [57] = tested on: Me-180; assay: as above; type: cell-based; conditions: Me-180, Her2 Exp. none
# Text: as §3, §4
# [58] = tested on: MDA-MB-453; assay: as above; type: cell-based; conditions: MDA-MB-453, Her2 Exp. High
# Text: as §3, §4
# [59] = tested on: NCI-N87; assay: as above; type: cell-based; conditions: NCI-N87, Her2 Exp. High
# Text: as §3, §4
# [60] = tested on: Calu-3; assay: as above; type: cell-based; conditions: Calu-3, Her2 Exp. High
# Text: as §3, §4
# [61] = tested on: SKOV3; assay: Cytotoxic effects of GrB/ZME fusion constructs; type: cell-based; conditions: SKOV3, non-specific control
# Text: (§5) GrB-ZME(VL-VH) fusion proteins were constructed as indicated above using different linkers between the GrB and ZME sequences. The construct SL used the G4S linker; LL was four repeats of the HL (EAAAK (SEQ ID NO: 14)) linker and X was a G4S+218 linker.
# (§6) Two glycosylation sites were identified within the GrB molecule (d1 and d2) and modified the GrB/scFvMEL fusion construct as detailed above and as shown in FIG. 4 (d1 indicates N51S; d2 indicates N84A). Each glycosylation site was modified and then a molecule containing both modifications was generated. The individual modifications had little effect on in vitro GrB enzymatic activity (see, e.g., FIG. 4). […] There was little impact on the non-specific cell line (SKOV3).
# (§7) Three expression constructs were developed and tested. (LL) encoded GrB-HL-HL-HL-HL-ZME(VL-VH), plasmid designation pSECTag-GrB-HL4-ZME; (E) encoded GrB HL HL HL HL T1 ZME(VL-VH), plasmid designation pSECTag-GrB-HL4-T1-ZME; and (J) (LL) encoded GrB (d1, A, N) HL HL HL HL ZME(VL-VH), plasmid designation pSECTag-GrB-HL4-ZME. The constructs were expressed and tested. […] Incorporation of d1 modified GrB into the construct further increased the specific cytotoxicity of the construct with no impact on non-specific cytotoxicity.
# as §4
# (§8) These constructs were expressed and tested. […] Incorporation of the “26” molecule increased the toxicity to target and non-target cells alike.
# [62] = tested on: AAB-527; assay: Cytotoxic effects of GrB/ZME fusion constructs; type: cell-based; conditions: AAB-527, specifically targeted by ZME
# Text: as §5, §6, §7, §4, §8
# [63] = tested on: A375-M; assay: Cytotoxic effects of GrB/ZME fusion constructs; type: cell-based; conditions: specifically targeted by ZME
# Text: as §5, §6, §7, §4, §8
# [64] = tested on: MDA MB435; assay: In vitro cytotoxic effects of GrB-based fusions, crystal violet; type: cell-based; conditions: Table 11, MDA MB435, 72 h exposure
# [65] = Enzymatic assay of GrB component, continuous colorimetric assay; type: biochemical; conditions: substrate BAADT, 25° C., native GrB as standard
# Protocol: The enzymatic activity of the GrB component was determined in a continuous colorimetric assay using N-α-t-butoxycarbonyl-L-alanyl-L-alanyl-L-aspartyl-thiobenzylester (BAADT) as a specific substrate (Liu et al., 2003). Assays consisted of commercial human GrB (Enzyme Systems Products, Livermore, Calif.) or GrB-based fusion proteins in BAADT at 25° C. […] The specific activity of GrB-based fusion proteins was calculated using native GrB as the standard.
substance,measurement,setting,value
"GrB: recombinant Granzyme B without targeting moiety, plasmid pSECTag-GrB, used as control",IC50,[1],> 1500 nM
same,IC50,[2],> 1500 nM
same,IC50,[3],> 700 nM
same,IC50,[4],447 nM
same,IC50,[5],660 nM
same,IC50,[6],3.01 µM
same,IC50,[7],1020 nM
same,IC50,[8],1910 nM
same,IC50,[9],> 1920 nM
same,IC50,[10],2630 nM
same,IC50,[11],> 1920 nM
same,IC50,[12],> 1920 nM
same,IC50,[13],825 nM
same,IC50,[14],1300 nM
same,IC50,[15],800 nM
same,IC50,[16],1040 nM
same,IC50,[17],> 1920 nM
same,IC50,[18],> 1920 nM
same,IC50,[19],1440 nM
same,IC50,[20],> 700 nM
same,IC50,[21],> 1920 nM
same,IC50,[22],445 nM
same,IC50,[23],> 1920 nM
same,IC50,[24],> 1300 nM
same,IC50,[25],> 1920 nM
same,IC50,[26],841 nM
same,IC50,[27],> 1920 nM
same,IC50,[28],> 1500 nM
same,IC50,[29],> 1500 nM
same,IC50,[30],> 1500 nM
same,IC50,[31],> 3.2 µM
same,IC50,[32],> 3.2 µM
same,IC50,[33],> 1920 nM
same,IC50,[34],> 3.2 µM
same,IC50,[35],259 nM
same,IC50,[36],> 3.2 µM
same,IC50,[37],1540 nM
same,IC50,[38],> 1920 nM
same,IC50,[39],1410 nM
same,IC50,[40],1300 nM
same,IC50,[41],> 1920 nM
same,IC50,[42],526 nM
same,IC50,[43],2340 nM
same,IC50,[44],> 3.2 µM
same,IC50,[45],> 1920 nM
same,IC50,[46],> 3.2 µM
same,IC50,[47],602 nM
same,IC50,[48],2360 nM
same,IC50,[49],> 3.2 µM
same,IC50,[50],445 nM
same,IC50,[51],> 1920 nM
same,IC50,[52],1220 nM
same,IC50,[53],> 1930 nM
same,IC50,[54],3.55 µM
same,IC50,[55],> 1000 nM
same,IC50,[56],> 1000 nM
same,IC50,[57],> 1000 nM
same,IC50,[58],> 1000 nM
same,IC50,[59],> 1000 nM
same,IC50,[60],> 1000 nM
same,IC50,[61],> 2000 nM
same,IC50,[62],> 2000 nM
same,IC50,[63],> 2000 nM
same,IC50,[64],> 1500 nM
native GrB: commercial human GrB (Enzyme Systems Products) used as the standard,GrB enzymatic activity,[65],1.19×10^5 U/μmoL
